Measured values reported in patent US6630310B1, “Assay for binding between carbohydrate and glycolipid” (Biopolymer Engineering Pharmaceutical, Inc., priority 1996, dated 2003).

What was measured:
[1] = Competition of ^3H-PGG-Glucan binding to lactosyl ceramide in reconstituted membranes (FIG. 14)
Description: FIG. 14 is a graph of the comparison of underivatized, aqueous soluble β(1-3)-glucan and single helix competition of ^3H-underivatized, aqueous soluble β(1-3)-glucan binding in three assay formats. Underivatized, aqueous soluble β(1-3)-glucan or single helix glucan was used at designated concentrations to compete for ^3H-underivatized, aqueous soluble β(1-3)-glucan binding to lactosyl ceramide (LacCer) in a 96-well plate (triangles), or to lactosyl ceramide in reconstituted membranes (squares), or to human leukocyte membranes (circles). Open symbols represent underivatized, aqueous soluble β(1-3) glucan, and closed symbols represent single helix. Maximum competition was assigned at the highest concentration of underivatized, aqueous soluble β(1-3)-glucan used as competitor in each type of assay.
Membranes were prepared from the receptor-negative cell line, U937, and extracted with chloroform/methanol as described above. The upper and lower layers were combined after removal of the proteinaceous interphase and dried under a stream of argon with the sample to be assayed for binding (lactosyl ceramide or fractions from the purification). […]
The dried lipid/sample preparations were resuspended in HBSS (500 μL) by brief sonication, and centrifuged for 10 minutes at 12,000×g. […] Pellets were then dissolved in SOLVABLE™, scintillation fluid was added, and radioactivity was measured.

[2] = system: neutrophil (human blood leukocyte) membranes; test: ^3H-PGG-Glucan binding to neutrophil membranes; conditions: PMN versus mononuclear cells
Experimental: The distribution of the receptor for underivatized, aqueous soluble β(1-3)-glucan across various cell lines and human tissues was determined by assessing the binding of radioactively labeled underivatized, aqueous soluble β(1-3)-glucan to membranes derived from a variety of cell types (see Table 2). The amount of radioactively labeled underivatized, aqueous soluble β(1-3)-glucan binding is expressed as mean±standard deviation in ng/mg membrane protein. The non-specific binding is defined as radioactively labeled underivatized, aqueous soluble β(1-3)-glucan bound in the presence of greater than 100-fold excess unlabeled underivatized, aqueous soluble β(1-3)-glucan. The specific binding is determined by (Total Binding)−(Non-Specific Binding), with the number in parenthesis in Table 2 representing the percent total binding. Quantitation of complement receptor 3 (CR3) was carried out by flow cytometry using fluorescently-labeled anti-CD11b, and data are expressed as mean channel fluorescence (MCF) in arbitrary fluorescence units; background fluorescence for isotype controls were subtracted. The neutrophil sample was greater than 95 percent neutrophils by histology. […]
Membranes were diluted to 2 to 5 mg/ml in HBSS with and without 1 mg/ml BSA. […] No radioactivity was found in the oil layer in the absence of added membranes. […]

[3] = system: NF-IL6; test: EMSA of NF-IL6 activation in human neutrophils; type: cell-based; conditions: 3 μg/ml, 60 minutes at 37° C., relative to control or dextran (FIG. 16B)
Experimental: Purified human neutrophils were incubated with or without underivatized, aqueous soluble β(1-3)-glucan (3 μg/ml) or dextran (3 μg/ml) for 60 minutes at 37° C. Nuclear extracts were prepared and protein/DNA complex formation assessed by electrophoretic mobility shift assay (EMSA). As shown in FIGS. 16A and 16B, underivatized, aqueous soluble β(1-3)-glucan increased the binding of nuclear extract proteins to an NF-kB or NF-IL6 specific 32P-labeled oligonucleotide probe relative to extracts from either control or dextran-treated neutrophils.
Human neutrophils (4.5×10^6 cells/ml; 10 ml total) purified as described above were incubated in RPMI+10% FCS (Sigma Chemical Co.) for 30 minutes at 37° C. Underivatized, aqueous soluble β(1-3)-glucan or dextran (both at 3 μg/ml) were then added and incubation continued an additional 60 minutes at 37° C. Nothing was added to control cells. At the end of the incubation, cells were washed in ice cold PBS+20 mM EDTA and nuclear extracts prepared and EMSAs performed as described above.

## underivatized, aqueous soluble β(1-3)-glucan [PGG-Glucan]
[1]
  competition for ^3H-underivatized, aqueous soluble β(1-3)-glucan binding to LacCer in the reconstitution assay (in words): competes
[2]
  specific binding of human peripheral blood PMN relative to mononuclear cells: five to ten
[3]
  binding of nuclear extract proteins to NF-IL6 specific 32P-labeled probe (EMSA, in words): increased
